e = 2'-O-(2-methoxyethyl) (MOE); d = 2'-deoxy (DNA)
Legend:
[1] = test system: Primary human neutrophils; assay: MTT survival assay of neutrophils cultured with GM-CSF, with or without gliotoxin; format: cell-based; conditions: 0.1 μg/ml added with 5 U/ml GM-CSF
Experimental: Primary human neutrophils are isolated and purified from peripheral blood of normal healthy individuals. Neutrophils are resuspended in serum containing culture medium together with various amounts of GM-CSF at a density of 2×10^6/ml, with 100 μl plated into a 96 well plate and cultured for 18 h at 37° C. After this time 10 μl of MTT (5 mg/ml) is added to the cultures and incubated for a further 4 h at 37° C. before solubilisation of the purple coloured formazan with acidic isopropanol. Optical densities are read at 570 nm using a plate reader.
Primary human neutrophils are isolated and purified from peripheral blood of normal healthy individuals. Neutrophils are resuspended in serum containing culture medium containing 5 U/ml of GM-CSF at a concentration of 2×10^6/ml. […] After the indicated time, 10 μl of MTT (5 mg/ml) are added to the cultures and incubated for a further 4 h at 37° C. before solubilisation of the purple coloured formazan with acidic isopropanol. Optical densities are read at 570 nm using a plate reader.

[2] = test system: Survivin mRNA; assay: Real-time PCR quantification of survivin mRNA in neutrophils; format: cell-based, human; conditions: for survivin mRNA expression in the absence of survival cytokines: 4-h transfection period, no cytokine
Experimental: (§1) Neutrophils are cultured at 1×10^6 per ml in complete culture medium. GM-CSF (50 ng/ml; kind gift of T. Hartung, University of Konstanz, Konstanz, Germany) or G-CSF (25 ng/ml; PeproTech, BioConcept, Allschwil, Switzerland) are added. The duration of GM-CSF or G-CSF stimulation is indicated in each experiment.
Neutrophils (1×10^7) are washed with PBS and the RNA is isolated according to the RNeasy protocol (Qiagen AG, Basel, Switzerland), which includes DNase digestion. RNA is reverse transcribed with the first strand cDNA synthesis kit (Amersham Pharmacia Biotech) by using random hexanucleotides according to the manufacturer's instructions. Real-time monitoring of PCR amplification of survivin cDNA is performed with a 1/100 dilution of neutrophil cDNA as previously described (Olie et al. (2000) Cancer Research 60, 2805-2809). Relative quantification of survivin expression is performed as described (Olie et al. (2000) Cancer Research 60, 2805-2809) utilizing rRNA as an internal standard.
(§2) The 20-mer first generation antisense oligonucleotide 4003 targeting the survivin mRNA has been described above. The second generation 2′-O-methoxy-ethoxy (2′-MOE) gapmer version of 4003 (as) and its 3-base mismatch sequence control (ms) are synthesized using an Applied Biosystems 394B automated DNA synthesizer as described (De Mesaeker et al. (1995) Acc. Chem. Res. 28, 366-374). Sequences are as follows: antisense survivin, cscscsasgsCsCsTsTsCsCsAsGsCsTscscststsg; mismatch survivin, cscstsasgsCsCsTsTsCsCsAsGsGsTscscstsasg. Small letters refer to 2′-O-(2-methoxy)-ethyl-modified nucleotides, capital letters to DNA, and “s” refers to phosphorothioate linkages. Cells isolated and cultured as described above are treated with survivin antisense oligonucleotides (as) or survivin mismatch control oligonucleotides (ms) at the indicated concentrations. In the experiments in which GM-CSF (50 ng/ml; kind gift of T. Hartung, University of Konstanz, Konstanz, Germany) or G-CSF (25 ng/ml; PeproTech, BioConcept, Allschwil, Switzerland) are added, the oligonucleotides are given 2 h before addition of cytokines.

[3] = test system: survivin; assay: Immunoblotting of survivin protein in neutrophils; format: cell-based, human
Experimental: as §1
Neutrophils (5×10^6) are washed with PBS, lysed with RIPA-buffer (0.5% sodium deoxycholate, 1% Nonidet P-40, 0.1% SDS in PBS) supplemented with a protease inhibitor-cocktail (Sigma) with frequent vortexing on ice for 40 min, including two freeze/thaw cycles using a methanol/dry ice bath. After a 10-min centrifugation to remove insoluble particles, equal amounts of the cell lysates are loaded on NuPage-Gels (Invitrogen Corp., Groningen, Netherlands). Separated proteins are electrotransferred onto polyvinylidene difluoride (PVDF) membranes (Immobilion-P, Millipore, Bedford, Mass.). The filters are incubated overnight with a polyclonal anti-survivin antibody (1/1000; R&D Systems, Abingdon, UK) at 4° C. in TBS/0.1% Tween-20/3% non-fat dry milk. Purified full-length recombinant human survivin (2 μl) is provided by R&D Systems as positive control for anti-survivin immunoblotting. For loading controls, stripped filters are incubated with a monoclonal anti-β-actin antibody (1/10,000; Sigma). Filters are washed in TBS/0.1% Tween-20 for 30 min and incubated with the appropriate HRP-conjugated secondary antibody (Amersham Pharmacia Biotech, Dübendorf, Switzerland) in TBS/0.1% Tween-20/5% non-fat dry milk for 1 h. Filters are developed by an ECL-technique (ECL-Kit, Amersham Pharmacia Biotech) according to the manufacturer's instructions.
as §2

[4] = test system: caspase-3; assay: Caspase-3 immunoblotting in neutrophils; format: cell-based, human
Experimental: Immunoblotting is carried out as described above using supernatants of cell lysates. Caspase-3 is detected using a polyclonal anti-caspase-3 antibody (1/1000; Becton Dickinson Pharmingen, Heidelberg, Germany))
(§3) Neutrophils (2.5×10^6) are cultured in the presence or absence of GM-CSF (50 ng/ml), G-CSF (25 ng/ml), 2-MOE modified antisense or mismatch survivin oligonucleotides at the indicated concentrations for 10 h, washed with cold PBS and subsequently lysed in 50 μl cell lysis buffer (50 mM HEPES, pH 7.4/0.1% Chaps/5 mM DTT/0.1 mM EDTA) using a Teflon glass homogenizer (VWR International, Ismaning, Germany) on ice for 10 min. After a 10-min centrifugation step at 10,000×g at 4° C., an aliquot of the supernatant is saved for caspase-3 immunoblotting and caspase 3-like activity is measured in 10 μl supernatants as enzymatic-conversion of the colorimetric substrate Ac-DEVD-pNA at 405 nm according to the manufacturer's instructions (QuantiZyme caspase 3 cellular activity assay kit, Biomol, Plymouth Meeting, Pa., USA).

[5] = test system: caspase-3; assay: Enzymatic caspase assay (Ac-DEVD-pNA) in neutrophil lysates; format: cell-based, human
Experimental: as §3

[6] = test system: Neutrophils; assay: Neutrophil apoptosis by oligonucleosomal DNA fragments after 2-MOE oligonucleotides; format: cell-based, human; conditions: for GM-CSF- and G-CSF-mediated survival of neutrophils: oligonucleotide plus GM-CSF or G-CSF
Experimental: Neutrophil apoptosis is assessed by oligonucleosomal DNA fragmentation (Dibbert et al.(1999) Proc. Natl. Acad. Sci. USA 96, 13330-13335; Hebestreit et al. (1998), J. Exp. Med. 187, 415-425) according to Nicoletti et al. ((1991) J. Immunol. Meth. 139, 271-279). Briefly, cells are resuspended in hypotonic fluorochrome solution containing 50 μg/ml propidium iodide (Sigma Buchs, Switzerland), 0.1% sodium citrate (Sigma) and 0.1% (vol/vol) Triton-X 100 (Sigma), incubated at 4° C. for 10 h, and analyzed by flow cytometry (FACScan, Becton Dickinson, Heidelberg, Germany).
as §2
Values are means ±S.E.M. of four independent experiments. *, p<0.05; **, p<0.01; ***, p<0.001.

CS[C@]1(CO)C(=O)N2[C@H]3C(=CC=C[C@@H]3O)C[C@@]2(SC)C(=O)N1C [methylgliotoxin, bis-Dethio-bis (Methylthio) Methyl Gliotoxin]
block of the GM-CSF inhibition of neutrophil apoptosis (MTT) [1]: blocking effect is not seen

cscscsasgsCsCsTsTsCsCsAsGsCsTscscststsg (CCCAGCCTTCCAGCTCCTTG; sugars from the 5' end e5 d10 e5, all phosphorothioate, methylation of C not given here) [survivin-antisense, second generation 2′-O-methoxy-ethoxy (2′-MOE) gapmer version of 4003]
survivin mRNA expression in the absence of survival cytokines [2]: only little effects | required concentration to significantly decrease survivin mRNA levels ([2]; G-CSF stimulation): 2.5 µM | concentration sufficient to significantly decrease survivin mRNA levels ([2]; GM-CSF stimulation): 1.0 µM | increases in survivin mRNA expression upon GM-CSF and G-CSF stimulation ([2]; oligonucleotides given 2 h before cytokines, dose-dependent): prevents increases in survivin mRNA expression | protein expression of survivin in normal neutrophils ([3]; 15-h transfection period, no cytokine): almost not affected | optimal concentration to block increase in survivin protein expression ([3]; G-CSF stimulation): 5 µM | optimal concentration to block increase in survivin protein expression ([3]; GM-CSF stimulation): 2.5 µM | increases in survivin expression (protein) upon GM-CSF and G-CSF stimulation ([3]; dose-dependent): prevents increases in survivin expression | optimal concentration to block inhibitory effects on caspase-3 processing ([4]; G-CSF): 5 µM | optimal concentration to block inhibitory effects on caspase-3 processing ([4]; GM-CSF): 2.5 µM | caspase-3 processing in the presence of GM-CSF or G-CSF ([4]; dose-dependent, 10 h): increase caspase-3 processing | optimal concentration at which inhibitory effect on caspase-3 activity is completely blocked ([5]; G-CSF): 5 µM | optimal concentration at which inhibitory effect on caspase-3 activity is completely blocked ([5]; GM-CSF): 2.5 µM | caspase-3-like enzymatic activity in the presence of GM-CSF or G-CSF ([5]; dose-dependent, 10 h): increase caspase-3-like enzymatic activity | spontaneous apoptosis of neutrophils ([6]; 10-h transfection period, no cytokine): increase spontaneous apoptosis | optimal concentration to block cytokine-mediated antiapoptosis ([6]; G-CSF): 5 µM | optimal concentration to block cytokine-mediated antiapoptosis ([6]; GM-CSF): 2.5 µM | GM-CSF- and G-CSF-mediated survival of neutrophils [6]: blocked GM-CSF- and G-CSF-mediated survival in a dose-dependent manner

cscstsasgsCsCsTsTsCsCsAsGsGsTscscstsasg (CCTAGCCTTCCAGGTCCTAG; sugars from the 5' end e5 d10 e5, all phosphorothioate, methylation of C not given here) [mismatch control oligonucleotides, reference compound]
survivin mRNA expression in the absence of survival cytokines [2]: only little effects | GM-CSF- and G-CSF-mediated survival of neutrophils [6]: unspecific effect

B1: G-CSF: inflammatory cytokine, neutrophil hematopoietin (PeproTech) (protein, UniProt P09919 31-207, looked up)
Granulocyte …: TPLGPASSLPQSFLLKCLEQVRKIQGDGAALQEKLVSECATYKLCHPEELVLLGHSLGIPWAPLSSCPSQALQLAGCLSQLHSGLFLYQGLLQALEGISPELGPTLDTLQLDVADFATTIWQQMEELGMAPALQPTQGAMPAFASAFQRRAGGVLVASHLQSFLEVSYRVLRHLAQP
survivin mRNA in normal control neutrophils after cytokine addition ([2]; cytokine added in vitro, A549 standard = 100%): increase in survivin mRNA | Levels of survivin (immunoblot) in normal control neutrophils ([3]; cultured for 12 h in the presence of cytokine): increased | caspase-3 proform and 17-kDa fragment levels with cytokine ([4]; neutrophils cultured with GM-CSF or G-CSF for 10 h): maintain greater amounts of the caspase-3 proform | DNA-fragmentation of neutrophils with cytokine ([6]; cytokine alone): prevent DNA-fragmentation
